According to patent US12383515B2, “Compositions and methods of use of γ-ketoaldehyde scavengers for treating, preventing or improving nonalcoholic fatty liver disease (NAFLD), NASH, ALD or conditions related to the liver” (MTI Biotech, Inc., priority 2016, dated 2025):
“Also recorded” adds a separate entry of the source.

Legend:
mouse hepatocytes = experiment: Oxidant mediated cell death induced by t-butylhydroperoxide; assay type: cell-based; conditions: FIG. 3
From the text: There is considerable interest in identifying appropriate therapeutic interventions aimed at inhibiting the inflammatory processes and interrupting the immunogenic pathways associated with ALD.
This is a remarkable finding given the fact the pathogenesis of oxidative injury is quite complex and multifaceted. […] Obviously, the efficacy of 2-HOBA depends on its accumulation in target tissues, and this was recently supported by pharmacokinetic studies in an in vivo mouse model. […] The levels in the liver were about 10 times higher than in plasma.

HepaRG cells = experiment: Ethanol exposure of HepaRG hepatocytes after 2-HOBA pre-treatment; assay type: cell-based, human
cyclooxygenase enzymes = conditions: cited from earlier work
HepG2 cells = conditions: varying concentrations of H2O2; cited from earlier work
C57/BL6J mice = experiment: NIAAA ethanol model (10 days ethanol in LDLD + binge) of alcoholic liver injury; assay type: in vivo, mouse; conditions: for Basophils / WBC / eosinophils, % of WBC / lymphocytes, % of WBC / monocytes, % of WBC: 0.5 g/L in LDLD; for AST: serum
Description: 2-HOBA and ethanol were concurrently administered to C57/BL6J mice to establish the efficacy of 2-HOBA in mitigating ethanol-mediated liver dysfunction (increased AST and ALT), reducing γ-KA formation, favorably altering immune responses and stimulating beneficial intracellular signaling pathways. […] 2-HOBA (0.5 g/L in Lieber-DeCarli liquid diet, LDLD) was administered to mice prior to ethanol treatment for 14 days to examine 2-HOBA efficacy in mitigating liver injury. Ethanol (5% v/v) was administered using the NIAAA model (10 days ethanol in LDLD+binge). […] White blood cell and lymphocyte cell counts were reduced while eosinophil and basophil counts were increased with ethanol relative to maltodextrin feeding (Table 1), consistent with other reports of alcoholic liver injury. Such responses were not observed in the presence of 2-HOBA.
An additional cohort of mice were administered a 14-day pretreatment of 2-HOBA (1.0 g/L) prior to administration of ethanol using the NIAAA model. Mice administered ethanol consumed less food and consequently weighed ˜2.5 g less than maltodextrin-fed controls at the end of study.

DIAMOND mice = experiment: DIAMOND mouse model of NAFLD/NASH; assay type: in vivo; conditions: 1 g/L in drinking water, Western diet
Description: Twelve 8-wk old male DIAMOND mice were placed on ad libitum high fat diet (Harlan—ENVIGO TD.88317) and water containing glucose (18.9% w/v) and fructose (23.1% w/v); all mice remained on this diet throughout the study protocol. […] The vehicle control group received water without 2-HOBA (with glucose and fructose). Body weight and food intake were measured weekly. At ˜23 wks of age, all animals underwent a glucose tolerance test (GTT) and MRI imaging to assess hepatic fat. For the GTT, animals were fasted for 12 hours and then glucose (2 g/kg bw of a 100 mg/mL glucose in sterile water) was administered by oral gavage. Blood was sampled at 0, 15, 30, 45, 60, 90, and 120 minutes after glucose administration and area under the curve was calculated. Animals were sacrificed at 24 wks of age (12 weeks of 2-HOBA or vehicle treatment). Tissues and serum were collected for analysis.
Serum levels of glucose, alanine transaminase, and aspartate transaminase were measured. […] Significance was set at α=0.05.

[1] = 1, 3, and 10 g/L for 7 days; cited from earlier work
[2] = 1 g/L in drinking water, 6 weeks, vs vehicle
[3] = 2-HOBA + ETOH, 2-HOBA 1.0 g/L, 14-day pretreatment
[4] = 2-HOBA + MD, 2-HOBA 1.0 g/L, 14-day pretreatment

**Q.** Which “cell death induced by t-butylhydroperoxide (tBHP)” value (mouse hepatocytes) does the source give for NCc1ccccc1O [2-HOBA, 2-Hydroxybenzylamine] here?
**A.** almost completely prevented

**Q.** What about the “reactive oxygen species formation” value (HepaRG cells; 24 hr pre-treatment 0, 250, 500 and 1000 μM, ethanol 0-200 mM, 24 hr, FIG. 4A) of the same compound?
**A.** did not affect

**Q.** And the “cell death by ethanol” value (HepaRG cells; 24 hr pre-treatment 0, 250, 500 and 1000 μM, ethanol 0-200 mM, 24 hr, FIG. 4B)?
**A.** almost completely prevented

**Q.** What about the “ALT levels in culture media” value (HepaRG cells; 24 hr pre-treatment 0, 250, 500 and 1000 μM, ethanol 0-200 mM, 24 hr, FIG. 5A) of the same compound?
**A.** near normalization

**Q.** What about the “AST levels in culture media” value (HepaRG cells; 24 hr pre-treatment 0, 250, 500 and 1000 μM, ethanol 0-200 mM, 24 hr, FIG. 5B) of the same compound?
**A.** near normalization

**Q.** And the “intensity of ~18 kD anti-D11 cross-reactive (γ-KA adducted) band” value (HepaRG cells; pre-treatment 250 or 500 μM for 24 hr, ethanol, SDS-PAGE, D11 ScFv, FIG. 6)?
**A.** restored to levels observed in untreated controls

**Q.** And the “inhibition of cyclooxygenase enzymes” value (cyclooxygenase enzymes)?
**A.** does not inhibit

**Q.** And the “oxidant mediated cell death” value (HepG2 cells)?
**A.** protective effect

**Q.** And the ALT (STAM mice; [2])?
**A.** trending towards reduction

**Q.** And the insulin (STAM mice; [2])?
**A.** trending towards reduction

**Q.** And the lipids (STAM mice; [2])?
**A.** trending towards reduction

**Q.** And the “liver to body weight ratios” value (STAM mice; [2])?
**A.** significantly reduced

**Q.** And the liver weight (STAM mice; [2])?
**A.** significantly reduced

**Q.** What about the serum isoprostanes (STAM mice; [2]) of the same compound?
**A.** significantly reduced

**Q.** And the NAFLD severity (STAM mice; FIG. 12)?
**A.** reduce

**Q.** What about the NALP1 (STAM mice; liver) of the same compound?
**A.** decrease

**Q.** What about the “expression of pyruvate dehydrogenase kinase 4 (pdk4)” value (STAM mice; liver) of the same compound?
**A.** significantly decreased

**Q.** And the “signaling through FOXO1” value (STAM mice; liver immunoblot)?
**A.** without significantly altering

**Q.** And the AKT phosphorylation (STAM mice; liver immunoblot, FIG. 13)?
**A.** dramatically increased

**Q.** What about the GSK30 phosphorylation (STAM mice; liver immunoblot, FIG. 13) of the same compound?
**A.** dramatically increased

**Q.** What about the “signaling through ERK” value (STAM mice; liver immunoblot, FIG. 13) of the same compound?
**A.** without significantly altering

**Q.** And the “signaling through mTOR” value (STAM mice; liver immunoblot, FIG. 13)?
**A.** without significantly altering

**Q.** What about the “markers of hepatic insulin sensitivity” value (STAM mice; mouse, in vivo) of the same compound?
**A.** restores

**Q.** And the NLRP1-inflammasome activation (STAM mice; oral 2-HOBA administration)?
**A.** blocked

**Q.** What about the body weight (C57/BL6J mice; 0.5 g/L 2-HOBA in LDLD) of the same compound?
**A.** not significantly impacted

**Q.** What about the food intake (C57/BL6J mice; 0.5 g/L 2-HOBA in LDLD) of the same compound?
**A.** not significantly impacted

**Q.** And the “increases in serum ALT” value (C57/BL6J mice; 2-HOBA 0.5 g/L)?
**A.** did not attenuate

**Q.** And the “increases in serum AST” value (C57/BL6J mice; 2-HOBA 0.5 g/L)?
**A.** did not attenuate

**Q.** And the “hepatic isofurans (IsoF)” value (C57/BL6J mice; 2-HOBA 1.0 g/L + ETOH, FIG. 8)?
**A.** significant reductions; also recorded: ameliorated

**Q.** What about the “hepatic isoprostanes (IsoP)” value (C57/BL6J mice; 2-HOBA 1.0 g/L + ETOH, FIG. 8) of the same compound?
**A.** significant reductions; also recorded: ameliorated

**Q.** What about the kidney isoprostane levels (C57/BL6J mice; 2-HOBA 1.0 g/L + ETOH, P<0.05 versus Con+ETOH) of the same compound?
**A.** 1.3 ± 0.1 ng/g

**Q.** And the Basophils (C57/BL6J mice; 2-HOBA + ETOH)?
**A.** 1.27 ± 0.26^# x10^3/μl

**Q.** What about the WBC (C57/BL6J mice; 2-HOBA + ETOH) of the same compound?
**A.** 3.11 ± 0.66 x10^3/μl

**Q.** And the eosinophils, % of WBC (C57/BL6J mice; 2-HOBA + ETOH)?
**A.** 2.71 ± 0.46%

**Q.** What about the lymphocytes, % of WBC (C57/BL6J mice; 2-HOBA + ETOH) of the same compound?
**A.** 50.4 ± 4.59%

**Q.** What about the monocytes, % of WBC (C57/BL6J mice; 2-HOBA + ETOH) of the same compound?
**A.** 6.33 ± 1.11%

**Q.** What about the ALT (C57/BL6J mice; 2-HOBA + ETOH, 2-HOBA 0.5 g/L) of the same compound?
**A.** 443.7 ± 66.2 U/L

**Q.** And the AST (C57/BL6J mice; 2-HOBA + ETOH, 2-HOBA 0.5 g/L)?
**A.** 1725.0 ± 300.2 U/L

**Q.** And the “BUN (blood urea nitrogen)” value (C57/BL6J mice; 2-HOBA + ETOH, 2-HOBA 1.0 g/L)?
**A.** 22.6 ± 1.7 mg/dL

**Q.** And the “CRE (creatinine)” value (C57/BL6J mice; 2-HOBA + ETOH, 2-HOBA 1.0 g/L)?
**A.** 0.3 ± 0.04 mg/dL

**Q.** And the ALT (C57/BL6J mice; [3])?
**A.** 164.4±20.8 U/L

**Q.** What about the AST (C57/BL6J mice; [3]) of the same compound?
**A.** 676.6±86.7 U/L

**Q.** And the WBC (C57/BL6J mice; 2-HOBA + MD (maltodextrin))?
**A.** 6.08 ± 1.05 x10^3/μl

**Q.** What about the Basophils (C57/BL6J mice; 2-HOBA + MD) of the same compound?
**A.** 0.60 ± 0.14 x10^3/μl

**Q.** What about the eosinophils, % of WBC (C57/BL6J mice; 2-HOBA + MD) of the same compound?
**A.** 1.79 ± 0.4%

**Q.** What about the lymphocytes, % of WBC (C57/BL6J mice; 2-HOBA + MD) of the same compound?
**A.** 58.1 ± 5.45%

**Q.** What about the monocytes, % of WBC (C57/BL6J mice; 2-HOBA + MD) of the same compound?
**A.** 6.66 ± 0.92%

**Q.** What about the ALT (C57/BL6J mice; 2-HOBA + MD, 2-HOBA 0.5 g/L) of the same compound?
**A.** 54.3 ± 20.1 U/L

**Q.** What about the AST (C57/BL6J mice; 2-HOBA + MD, 2-HOBA 0.5 g/L) of the same compound?
**A.** 566.5 ± 34.1 U/L

**Q.** What about the “BUN (blood urea nitrogen)” value (C57/BL6J mice; 2-HOBA + MD, 2-HOBA 1.0 g/L) of the same compound?
**A.** 34.6 ± 2.9 mg/dL

**Q.** And the “CRE (creatinine)” value (C57/BL6J mice; 2-HOBA + MD, 2-HOBA 1.0 g/L)?
**A.** 0.3 ± 0.05 mg/dL

**Q.** What about the ALT (C57/BL6J mice; [4]) of the same compound?
**A.** 127.5 ± 78.59 U/L

**Q.** And the AST (C57/BL6J mice; [4])?
**A.** 693.6 ± 173.1 U/L

**Q.** And the hepatic triglyceride content (C57/BL6J mice; ETOH-challenged mice pre-treated with 2-HOBA 1.0 g/L)?
**A.** trended to be lower

**Q.** What about the “ethanol responses: reduced white blood cell and lymphocyte counts, increased eosinophil and basophil counts” value (C57/BL6J mice; ethanol relative to maltodextrin feeding, 0.5 g/L 2-HOBA) of the same compound?
**A.** not observed

**Q.** What about the kidney isoprostane formation (C57/BL6J mice; pre-treatment 14 days at 1.0 g/L) of the same compound?
**A.** decreased

**Q.** And the “liver injury (elevated γ-KAs and liver function enzymes) upon ethanol exposure” value (C57/BL6J mice; pre-treatment with 2-HOBA 1.0 mg/ml (1.0 g/L), 14 days)?
**A.** significantly reduces; also recorded: reduced

**Q.** What about the liver weight (DIAMOND mice; FIGS. 15-16) of the same compound?
**A.** trend for a reduction

**Q.** What about the “liver enzyme ALT” value (DIAMOND mice; serum, FIG. 16H) of the same compound?
**A.** significant reduction

**Q.** What about the “liver enzyme AST” value (DIAMOND mice; serum, FIG. 16I) of the same compound?
**A.** significant reduction

**Q.** And the “levels in the liver relative to plasma” value [1]?
**A.** about 10 times

**Q.** And the “liver levels of 2-HOBA” value [1]?
**A.** dose-dependent increases

**Q.** And the “plasma levels of 2-HOBA” value [1]?
**A.** dose-dependent increases
